Test results taken from patent publication US20260265267A1, “NOVEL COMPOUNDS WITH MTORC2-INHIBITORY ACTIVITY AND USES THEREOF” (Aliad Biopharma, priority 2023, published 2026).

Assays:
[1] = test system: amyloid plaques in the brain of 5×FAD mouse; assay: Amyloid plaque removal in the brain of 5×FAD mice (6E10 antibody, thioflavin-S staining); assay type: in vivo; details: 5 mg/kg, 14 days
Procedure: In order to evaluate the efficacy of HN2210, HN2213, and HN2313 on Alzheimer's disease-related symptoms, specifically regarding 1) memory and cognitive impairment, 2) amyloid plaques, 3) neurofibrillary tangles (NFTs), and 4) brain inflammation, an in vivo efficacy assessment of HN2210, HN2213 and HN2313 was conducted using 5×FAD Alzheimer's disease model mice. The 5×FAD mice were purchased from Jackson Lab, USA (Cat #034840-JAX) and crossed once with C57bl6 mice to produce F1 heterozygous offspring (Het). The compound was administered via intraperitoneal injection to 6-month-old 5×FAD Het mice, followed by behavioral testing. The normal control mice, which were littermates of the 5×FAD Het mice, were aged to 6 months and received DMSO injection at the same volume.
In order to assess the amyloid plaque removal effect of HN2210, HN2213, and HN2313 compounds in the brains of Alzheimer's disease model mice, the following test was conducted using 5×FAD-DMSO mice without compound treatment, 5×FAD mice treated with HN2210, HN2213, or HN2313 compounds, and normal mice as controls.
Specifically, brain slices sectioned in the coronal plane were selected for every fifth slice from the anterior to the posterior parts of the brain and stained with the 6E10 antibody or thioflavin-S. The 6E10 antibody stains both […] and amyloid plaques, while thioflavin-S specifically stains amyloid plaques. DNA was co-stained with DAPI. The dentate gyrus (DG) region of the hippocampus, where amyloid plaques tend to accumulate heavily, was examined using a confocal scanning microscope, and the images are shown in FIGS. 9a to 9c.

[2] = biological target: T1, mTOR(CD) protein and mLST8 protein (Homo sapiens, UniProt P42345+Q9BVC4); assay: mTOR(CD)-mLST8 binding assay (co-precipitation, Western blot); details: read-out: inhibition of the binding between mTOR(CD) and mLST8 proteins
T1 construct: mTOR C-terminal domain (mTOR(CD), a.a. 2179-2549); made in house; host or cells: E. coli (mTOR(CD)); insect Sf9 cells (mLST8, used as a crude extract)
Procedure: mLST8 binds to the mTOR C-terminal domain (mTOR(CD), a.a. 2179-2549). After binding to mTOR, mLST8 interacts with mSin1 and Rictor to complete the formation of the mTORC2 complex, serving as a scaffold. In order to evaluate the inhibitory activity of the compounds synthesized in Examples 1 to 70 on the binding between mLST8 protein and mTOR(CD) protein, the following mTOR(CD)-mLST8 binding assay was performed. Four types of compounds: HN2210, HN2213, HN2221 and HN2313 were used as the experimental target compounds.
Specifically, mTOR(CD) protein was overexpressed in E. coli, labeled with biotin, and then partially purified. mLST8 protein was overexpressed in insect Sf9 cells to obtain mLST8 extract. mTOR(CD)-biotin and mLST8 extract were incubated at 4° C. to induce binding between mTOR(CD)-biotin and mLST8 proteins, and then the mTOR(CD)-biotin and mLST8 complex were co-precipitated using avidin-agarose beads. The relative amounts of precipitated mTOR(CD)-biotin and mLST8 proteins were measured by Western blot analysis, as shown in FIG. 4. Four types of compounds were added during the incubation process of the mTOR(CD)-biotin and mLST8 extract.

mTORC2 = biological target: T2, mTORC2 (Homo sapiens, UniProt P42345); assay: mTORC2 inhibitory activity in HeLa cells (Akt Ser473 phosphorylation, Western blot); assay type: cell-based; details: for selective inhibition of mTORC2: 40 μM, versus mTORC1; for selective inhibition of mTORC2 / remaining activity at 40 µM: 9 hours; for remaining activity at 40 µM: read-out: pSer473-AKT/AKT (% control)
T2 construct: the following experiments were conducted in HeLa cells; endogenous in cells; host or cells: HeLa
In short: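 HeLa cells treated with compounds at 40 μM for 9 hours, then lysed and analysed by Western blot with chemiluminescent detection. Phospho-Akt Ser473 signal normalised to total Akt and expressed as percent of DMSO vehicle control.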

Compound | reduction of 6E10 signals in the dentate gyrus compared to the 5×FAD-DMSO group [1] [%] | reduction of thioflavin-S signals in the dentate gyrus compared to the 5×FAD-DMSO group [1] [%] | inhibition at 4 µM [2] [%] | inhibition at 40 µM [2] [%] | selective inhibition of mTORC2 (mTORC2) | remaining activity at 40 µM (mTORC2) [%] | inhibition at 40 µM (mTORC2; HeLa, 9 h, read-out: reduction in Akt Ser473 phosphorylation compared to the control group) [%]
O=C1c2cc(F)c(N3CCOCC3)cc2COc2cc3c(cc21)OCO3 [HN2210, 8-(morpholino)-9-fluoro[2]benzoxepino[3,4-f]-1,3-benzodioxol-11(6H)-one] | 53 | 38 | 24 | 36 | selectively inhibit mTORC2 | 43 | 
O=C1c2cc(F)c(NCc3ccccc3)cc2COc2cc3c(cc21)OCO3 [HN2213, 8-(benzylamino)-9-fluoro[2]benzoxepino[3,4-f]-1,3-benzodioxol-11(6H)-one] | 29 | 28 | 19 | 30 | selectively inhibit mTORC2 | 51 | 
O=C1c2cc(F)c(NC3CCCC3)cc2COc2cc3c(cc21)OCO3 [HN2313, 8-(cyclopentylamino)-9-fluoro-[1,3]dioxolo[4′,5′:4,5]benzo[1,2-b]benzo[e]oxepin-11(6H)-one] | 38 | 35 |  | 34 |  | 80 | > 20
